{"source": "patent US20050238727A1", "about": "“Coadministration of radiation, efaproxiral sodium, and supplemental oxygen for the treatment of cancer” (priority 2004, published 2005)", "format_in_all_cases": "in vivo, human", "key": {"brain metastases [1]": {"tested_on": "brain metastases", "experiment": "Survival of patients with brain metastases given efaproxiral sodium + WBRT + supplemental oxygen (controlled study RT-009)", "description": "Patients with brain metastases were administered efaproxiral sodium in a total dose of 0-100 mg/kg per day based on the dosing guidelines detailed above. In general, efaproxiral sodium is administered by intravenous infusion through a central venous access device over 30 minutes at a dose of 75 or 100 mg/kg daily with concurrent supplemental oxygen. Oxygen must be administered at 4 L/min via nasal cannula or facemask beginning 5 minutes prior to initiation of infusion, during infusion and WBRT, and for at least 15 minutes after completion of daily WBRT. Efaproxiral sodium is administered every day of a fractionated course of WBRT. Except when contraindicated, WBRT must be administered within 30 minutes of the end of the efaproxiral sodium infusion. The patients were given the drug in one dose. Efaproxiral sodium was administered via central venous access with flow rate controlled by volumetric pump over a 30-45 minute interval with end-infusion no longer than 30 minutes prior to each radiation dose of a 10-day course of WBRT. Efaproxiral sodium was formulated as a sterile solution for injection and was supplied in single-use glass bottles containing 10 g efaproxiral sodium in 500 mL of 0.225% NaCl at a concentration of 20 mg/mL. Efaproxiral sodium was administered during the 10-day course of WBRT, for a maximum of 10 doses. A control group received radiation and supplemental oxygen only. Supplemental oxygen is administered at about 4 L/min via nasal cannula beginning about 5 minutes prior to initiation of infusion, during infusion and WBRT, and for at least about 15 minutes after completion of daily WBRT. If the desired SpO2 of greater than or equal to 90% while breathing room air is not achieved, supplemental oxygen is to be continued and increased to a flow of 6-8 L/min, if necessary, until the SpO2 while breathing room air is stabilized at greater than or equal to 90%. Plasma and red blood cell (RBC) drug concentration were assayed on 2 days during the course of efaproxiral sodium administration: WBRT day 1 (end-infusion) and on 1 single day between WBRT days 6 and 10 (pre-infusion and end-infusion assays). Regression analysis was used to explore the relationship between trough and peak concentrations and continuous clinical covariates (eg, age, serum albumin, hematocrit, serum creatinine, etc). […] A dose of efaproxiral sodium was considered predicatably therapeutic if it achieved a sufficient, RBC concentration (>483 μg/ml), and corresponded to a predicted p50 shift of 10 mmHg. One measurement of efficacy is the survival in the total patient population. For eligible patients, the observed mean survival time for the control group was 4.37 months as compared to 5.39 months for the efaproxiral sodium treated group."}, "[2]": {"experiment": "Treatment-emergent adverse events in the controlled study", "description": "Patients with brain metastases were administered efaproxiral sodium in a total dose of 0-100 mg/kg per day based on the dosing guidelines detailed above. In general, efaproxiral sodium is administered by intravenous infusion through a central venous access device over 30 minutes at a dose of 75 or 100 mg/kg daily with concurrent supplemental oxygen. Oxygen must be administered at 4 L/min via nasal cannula or facemask beginning 5 minutes prior to initiation of infusion, during infusion and WBRT, and for at least 15 minutes after completion of daily WBRT. Efaproxiral sodium is administered every day of a fractionated course of WBRT. Except when contraindicated, WBRT must be administered within 30 minutes of the end of the efaproxiral sodium infusion.\nThe patients were given the drug in one dose. Efaproxiral sodium was administered via central venous access with flow rate controlled by volumetric pump over a 30-45 minute interval with end-infusion no longer than 30 minutes prior to each radiation dose of a 10-day course of WBRT. Efaproxiral sodium was formulated as a sterile solution for injection and was supplied in single-use glass bottles containing 10 g efaproxiral sodium in 500 mL of 0.225% NaCl at a concentration of 20 mg/mL. Efaproxiral sodium was administered during the 10-day course of WBRT, for a maximum of 10 doses. A control group received radiation and supplemental oxygen only.\nThe majority of treatment-emergent adverse events were Grade 1 or 2 in severity, resolved spontaneously or within the duration of the study, and responded well to concomitant treatment with antiemetics for nausea/vomiting, nonsteroidal anti-inflammatory drugs for headache, supplemental oxygen for hypoxemia. […] Muscle weakness and dyspnea (reported in 3% of patients ) were the most commonly reported Grade 3 adverse events in Control patients and both events were reported as a Grade 4 event in 1 patient each. The most commonly reported Grade 4 adverse event in both treatment and control groups was disease progression (reported in 6% of both groups)."}, "[3]": {"experiment": "Plasma and red blood cell (RBC) drug concentration during efaproxiral sodium administration", "description": "Plasma and red blood cell (RBC) drug concentration were assayed on 2 days during the course of efaproxiral sodium administration: WBRT day 1 (end-infusion) and on 1 single day between WBRT days 6 and 10 (pre-infusion and end-infusion assays). Regression analysis was used to explore the relationship between trough and peak concentrations and continuous clinical covariates (eg, age, serum albumin, hematocrit, serum creatinine, etc). […] A dose of efaproxiral sodium was considered predicatably therapeutic if it achieved a sufficient, RBC concentration (>483 μg/ml), and corresponded to a predicted p50 shift of 10 mmHg."}, "brain metastases [4]": {"tested_on": "brain metastases", "experiment": "Radiographic response of brain metastases (contrast enhanced MRI or CT, blinded central review)", "description": "Radiographic progression is defined by radiographic criteria only, based on a blinded central review. Determination of radiographic tumor progression in the brain was based on contrast enhanced MRI or CT scans taken at screening and compared to follow-up scans taken 1 month after the end of WBRT, 3 months after the end of WBRT, and every 3 months thereafter until death. Maximum bi-dimensional measurements (x=transverse, y=antero-posterior) were used to compute the bi-dimensional product and for determination of response and radiographic progression. Time to radiographic tumor progression in the brain was reported by means of Kaplan-Meier estimates. Gray's test (Gray R. A class of K-sample tests for comparing the cumulative incidence of a competing risk. Annals of Statistics […];16:1141-1154) was used to compare cumulative incidence between treatment and control groups. Potential competing risks for radiographic progression in the brain included death without progression and loss to follow-up. The date of tumor progression is defined as the date of radiographic documentation that any treated lesion in the brain is enlarged by more than 25% in the bi-dimensional product. The reference to “any treated lesion” mans that the lesion was present prior to RT."}, "[5]": {"experiment": "Quality of life: Karnofsky Performance Status (KPS)", "details": "for patients with stable or improving KPS scores: all randomized patients, N = 271", "description": "(§1) Quality of life was determined by means of the Spitzer Questionnaire (SQ) and Kamofsky Performance Status (KPS) assessment. The tests were performed at baseline, at WBRT day 10, and at all routine follow-up visits. A sustained drop in the KPS score to less than 60 was defined as a significant drop. The 5 questions comprising the Spitzer Questionnaire were weighted evenly. For each evaluation with at least 3 out of 5 questions answered, an average score was computed for each patient. Questionnaires with fewer than 3 questions answered were treated as missing data. The protocol specified a sustained drop in the Spitzer Questionnaire score of 2 points constituted a significant drop."}, "[6]": {"experiment": "Quality of life: Spitzer Questionnaire (SQ)", "details": "all randomized patients, N = 271", "description": "as §1"}, "[7]": {"experiment": "Resaturation time / supplemental oxygen requirement after efaproxiral sodium plus WBRT", "details": "majority of doses; patients with brain metastases from breast cancer", "description": "Depending upon an individual patient's resaturation time (time required to recover to a stable≧90% SpO2 on room air) following efaproxiral sodium plus WBRT, supplemental oxygen use may be required for as little as 30 minutes to more than 4 hours. […] During this period of decreased oxygen saturation, patients require continuous SpO2 monitoring. If the desired SpO2 of≧90% while breathing room air is not achieved, supplemental oxygen is to be continued and increased to a flow of 6-8 L/min, if necessary, until the SpO2 while breathing room air is stabilized at≧90%."}}}
{"smiles": "Cc1cc(C)cc(NC(=O)Cc2ccc(OC(C)(C)C(=O)O)cc2)c1", "note": "[efaproxiral sodium, 2-[4-(((3,5-dimethylanilino)carbonyl)methyl)phenoxy]-2-methylpropionic acid]", "values": [{"measurement": "MST (median survival time)", "setting": "brain metastases [1]; All patients, <7 efaproxiral sodium doses", "result": "2.96 (53)"}, {"measurement": "MST (median survival time)", "setting": "brain metastases [1]; All patients, ≧7 efaproxiral sodium doses, <7 successful (RBC >483 μg/ml)", "result": "4.93 (118)"}, {"measurement": "MST (median survival time)", "setting": "brain metastases [1]; All patients, ≧7 efaproxiral sodium doses, ≧7 successful (RBC >483 μg/ml), p 0.001 vs Control", "result": "6.90 (100) 0.001"}, {"measurement": "MST (median survival time)", "setting": "brain metastases [1]; Breast patients, <7 efaproxiral sodium doses", "result": "3.52 (13)"}, {"measurement": "MST (median survival time)", "setting": "brain metastases [1]; Breast patients, ≧7 efaproxiral sodium doses, <7 successful", "result": "7.33 (22)"}, {"measurement": "MST (median survival time)", "setting": "brain metastases [1]; Breast patients, ≧7 efaproxiral sodium doses, ≧7 successful, p 0.0002 vs Control", "result": "25.72 (25) 0.0002"}, {"measurement": "MST (median survival time)", "setting": "brain metastases [1]; NSCLC patients, <7 efaproxiral sodium doses", "result": "2.71 (30)"}, {"measurement": "MST (median survival time)", "setting": "brain metastases [1]; NSCLC patients, ≧7 efaproxiral sodium doses, <7 successful", "result": "4.73 (65)"}, {"measurement": "MST (median survival time)", "setting": "brain metastases [1]; NSCLC patients, ≧7 efaproxiral sodium doses, ≧7 successful, p 0.0011 vs Control", "result": "6.83 (53) 0.0011"}, {"measurement": "observed mean survival time", "setting": "brain metastases [1]; eligible patients, control group 4.37 months", "result": 5.39, "unit": "months"}, {"measurement": "HR, survival distribution function, treatment versus control", "setting": "brain metastases [1]; patients with breast as site of primary, p=0.0061", "result": 0.552}, {"measurement": "severity of the majority of treatment-emergent adverse events", "setting": "[2]; controlled study", "result": "Grade 1 or 2"}, {"measurement": "Grade 4 hypoxemia", "setting": "[2]; efaproxiral sodium-treated patients", "result": "no Grade 4 hypoxemia was reported"}, {"measurement": "Grade 3 hypoxemia, patients reporting", "setting": "[2]; efaproxiral sodium-treated patients, most commonly reported Grade 3 adverse event", "result": 11, "unit": "%"}, {"measurement": "Grade 4 disease progression, patients reporting", "setting": "[2]; most commonly reported Grade 4 adverse event, same in control group", "result": 6, "unit": "%"}, {"measurement": "drug accumulation", "setting": "[3]; WBRT week 2 preinfusion concentrations in RBCs", "result": "No clinically relevant drug accumulation occurred"}, {"measurement": "predicted p50 shift", "setting": "[3]; at RBC concentration >483 μg/ml", "result": 10, "unit": "mmHg"}, {"measurement": "change of concentration in RBCs with dose", "setting": "[3]; patients dosed at 75 or 100 mg/kg", "result": "proportional increase"}, {"measurement": "estimated increase in radiographic response rate compared to Control", "setting": "brain metastases [4]; all randomized patients, 95% CI −0.4%-16.3%, p=0.0609", "result": 7.9, "unit": "%"}, {"measurement": "treatment effect for predicting response (logistic multiple regression)", "setting": "brain metastases [4]; breast primary patients, p=0.0209", "result": "statistically significant"}, {"measurement": "patients with stable or improving KPS scores", "setting": "[5]; 1 month", "result": "119 (44) n (%)"}, {"measurement": "patients with stable or improving KPS scores", "setting": "[5]; 3 months", "result": "64 (24) n (%)"}, {"measurement": "patients with stable or improving KPS scores", "setting": "[5]; 6 months", "result": "49 (18) n (%)"}, {"measurement": "patients with stable or improving KPS scores", "setting": "[5]; 12 months", "result": "19 (7) n (%)"}, {"measurement": "distribution of KPS score categories between treatment groups", "setting": "[5]; breast primary patients, 6 months and 1 year (p=0.0046 and p=0.0070)", "result": "statistically significant difference"}, {"measurement": "patients with stable or improving SQ scores", "setting": "[6]; 1 month", "result": "115 (42) n (%)"}, {"measurement": "patients with stable or improving SQ scores", "setting": "[6]; 3 months", "result": "62 (23) n (%)"}, {"measurement": "patients with stable or improving SQ scores", "setting": "[6]; 6 months", "result": "43 (16) n (%)"}, {"measurement": "patients with stable or improving SQ scores", "setting": "[6]; 12 months", "result": "24 (9) n (%)"}, {"measurement": "supplemental oxygen required after completion of WBRT", "setting": "[7]", "result": "one"}]}
